The values that follow come from ChEMBL document CHEMBL1201862, “PubChem BioAssay data set” (2004).

Among the test systems are DU-145; CCRF-CEM; KM12; CAKI-1; Hs-578T; SF-539; HCT-15; K562; 786-0; NCI-H460; M14; HCC 2998; A498; NCI-H23; SK-MEL-5; HT-29; TK-10; OVCAR-3; HOP-92; HOP-62.
Test in all cases: NCI-60 cell line screen, 48 h

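Results reflect a 48-hour exposure of cells in 96-well plates to compound at five concentrations. GI50 is the concentration that inhibits growth by half.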 Activity calls are given as the source filed them. No stated cut-off is given here; in the data, active = GI50 up to about 1.1 µM and inactive = higher.

As for `Cc1ccc(S(=O)(=O)Oc2nc3ccccc3nc2N(S(=O)(=O)c2ccc(C)cc2)S(=O)(=O)c2ccc(C)cc2)cc1`, the GI50 in the experiment with DU-145 is 53.8 µM (inactive); with CCRF-CEM, 50.1 µM (inactive); in the experiment on KM12, 33.7 µM (inactive); in the experiment with CAKI-1, 72.4 µM (inactive); with Hs-578T it was 63.1 µM (inactive); with SF-539 it was 29 µM (inactive). The GI50 was 31 µM in the experiment with HCT-15; > 10 µM (inactive) in the experiment on K562; 38.6 µM (inactive) with 786-0; 28.7 µM (inactive) in the experiment on NCI-H460; 76.6 µM (inactive) in the experiment with M14; 0.625 µM (active) in the experiment with HCC 2998. Moreover, the GI50 with A498 was 89.9 µM (inactive); with NCI-H23 it was 47.8 µM (inactive); in the experiment on SK-MEL-5 it was 47.9 µM (inactive); with HT-29 it was 28.2 µM (inactive); in the experiment on TK-10, 39.8 µM (inactive); in the experiment on OVCAR-3, 41.5 µM (inactive).

Regarding `CN(CCC(=O)O)C1=Nc2ccc(Cl)cc2C(c2ccccc2)=[N+]([O-])C1`, the GI50 in the experiment on DU-145 was > 100 µM (inactive); with CCRF-CEM it was > 100 µM (inactive); in the experiment with KM12 it was > 100 µM (inactive); in the experiment with CAKI-1 it was 78.5 µM (inactive); in the experiment on HOP-92 it was > 100 µM (inactive); in the experiment with Hs-578T it was > 100 µM (inactive). Besides, the GI50 with SF-539 was > 100 µM (inactive); with HCT-15, over 100 µM; in the experiment with K562 it was > 100 µM (inactive); in the experiment with 786-0, > 100 µM (inactive); in the experiment with NCI-H460 it was > 100 µM (inactive); with M14, > 100 µM (inactive). Further, the GI50 in the experiment with A498, in the experiment on NCI-H23, with SK-MEL-5, in the experiment on HT-29, in the experiment on HOP-62 and in the experiment on TK-10 was > 100 µM (inactive) throughout. Further, the GI50 with OVCAR-3 is > 100 µM (inactive).

As for `O=[N+]([O-])c1cc(Cl)cc2c1nc(NCCO)c1ccccc12`, the GI50 is 1.69 µM (inactive) in the experiment on DU-145; 16.7 µM (inactive) in the experiment with CCRF-CEM; 9.53 µM (inactive) in the experiment on KM12; 16.5 µM (inactive) in the experiment on CAKI-1; 15.6 µM (inactive) in the experiment with HOP-92; 28.9 µM (inactive) in the experiment on Hs-578T. The GI50 is 20.9 µM (inactive) in the experiment on SF-539; 4.36 µM in the experiment with HCT-15; 4.39 µM (inactive) with K562; 6.81 µM (inactive) in the experiment on 786-0; 2.58 µM (inactive) with NCI-H460; 8.45 µM (inactive) in the experiment with M14. Moreover, the GI50 in the experiment on A498 is 10.3 µM (inactive); with NCI-H23, 9.75 µM (inactive); with SK-MEL-5, 1.35 µM (inactive); with HT-29 it was 0.063 µM (active); in the experiment with HOP-62, 7.24 µM (inactive); with TK-10, 10.8 µM (inactive). The GI50 in the experiment with OVCAR-3 is 12.1 µM (inactive).

As for `CSC1=NN(c2ccccc2)C(=O)C1=C(SC)SC`, the GI50 in the experiment with DU-145 is 29.9 µM (inactive); in the experiment on CCRF-CEM, 14.2 µM (inactive); in the experiment on KM12, 31.6 µM (inactive); in the experiment on CAKI-1, 20 µM (inactive); in the experiment on Hs-578T it was 18.1 µM (inactive); in the experiment on SF-539, 21.7 µM (inactive). In addition, the GI50 in the experiment with HCT-15 was 20.1 µM; in the experiment with K562, 20.1 µM (inactive); with 786-0, 24.2 µM (inactive); in the experiment with NCI-H460, 14.2 µM (inactive); in the experiment with M14, 37.2 µM (inactive); in the experiment with HCC 2998 it was 25.6 µM (inactive). Also, the GI50 with A498 was 13.3 µM (inactive); in the experiment on NCI-H23 it was 19.1 µM (inactive); with SK-MEL-5, 16.3 µM (inactive); with HT-29, 19.1 µM (inactive); in the experiment with TK-10 it was 19.5 µM (inactive); in the experiment on OVCAR-3 it was 42.6 µM (inactive).

For `O=C(Nc1ccn(C2CCC(CO)O2)c(=O)n1)c1ccccc1` (centres undefined), the GI50 in the experiment with DU-145 is > 100 µM (inactive); in the experiment with CCRF-CEM, 34.1 µM (inactive); in the experiment with KM12, > 100 µM (inactive); with CAKI-1, > 100 µM (inactive); in the experiment on Hs-578T, > 100 µM (inactive); with SF-539, > 100 µM (inactive). Besides, the GI50 with HCT-15 is over 100 µM; with K562, > 100 µM (inactive); in the experiment with 786-0, > 100 µM (inactive); with M14, > 100 µM (inactive); in the experiment on HCC 2998, > 100 µM (inactive); in the experiment on A498 it was 50.4 µM (inactive). For the same compound, the GI50 in the experiment on NCI-H23, in the experiment with SK-MEL-5, in the experiment on HT-29, in the experiment with HOP-62 and with TK-10 was > 100 µM (inactive) in each case.

For `COc1ccc(/C=N/n2c(Cc3ccccc3)n[nH]c2=O)cc1`, the GI50 is > 100 µM (inactive) with DU-145; > 100 µM (inactive) in the experiment with CCRF-CEM; > 100 µM (inactive) in the experiment with KM12; > 100 µM (inactive) in the experiment with CAKI-1; 32.3 µM (inactive) with Hs-578T; > 100 µM (inactive) with SF-539. The GI50 in the experiment with HCT-15 is over 100 µM; with K562, > 100 µM (inactive); in the experiment on 786-0, > 100 µM (inactive); with NCI-H460, > 100 µM (inactive); with M14, > 100 µM (inactive); with HCC 2998 it was > 100 µM (inactive). Moreover, the GI50 with A498 is 32.4 µM (inactive); in the experiment on NCI-H23, 94.8 µM (inactive); in the experiment on HT-29, > 100 µM (inactive); in the experiment with HOP-62, 69.3 µM (inactive); in the experiment with OVCAR-3 it was > 100 µM (inactive).

Turning to `Nc1ccc2nc3c(nc2c1)C(=O)c1ccccc1-3`, the GI50 is > 100 µM (inactive) with DU-145; 84.3 µM (inactive) with CCRF-CEM; > 100 µM (inactive) in the experiment with KM12; > 100 µM (inactive) in the experiment with HOP-92; > 100 µM (inactive) with Hs-578T; > 100 µM (inactive) in the experiment on SF-539. The GI50 in the experiment with HCT-15 was over 100 µM; in the experiment on K562 it was > 100 µM (inactive); in the experiment on 786-0, 75 µM (inactive); in the experiment on NCI-H460, 69.2 µM (inactive); in the experiment on M14, > 100 µM (inactive); with HCC 2998, > 100 µM (inactive). In addition, the GI50 in the experiment with NCI-H23, in the experiment with SK-MEL-5, with HT-29, in the experiment with HOP-62, in the experiment with TK-10 and with OVCAR-3 was > 100 µM (inactive) throughout.

For the compound `CN1CC[C@]23c4c5ccc(O)c4OC2c2[nH]ncc2C[C@H]3[C@H]1C5` (some centres undefined), the GI50 with DU-145, with CCRF-CEM, with KM12, with CAKI-1, with HOP-92 and with Hs-578T was > 100 µM (inactive) in each case. Moreover, the GI50 was over 100 µM in the experiment with HCT-15; > 100 µM (inactive) in the experiment with K562; > 100 µM (inactive) in the experiment with 786-0; > 100 µM (inactive) in the experiment on NCI-H460; > 100 µM (inactive) with M14; > 100 µM (inactive) in the experiment on HCC 2998. Moreover, the GI50 in the experiment on NCI-H23, in the experiment with SK-MEL-5, in the experiment on HT-29, with HOP-62, in the experiment on TK-10 and in the experiment on OVCAR-3 was > 100 µM (inactive) each time.
